Key:
[1] = system: HCV genotype 1a (H77 strain) replicon in HUH-7 cells; test: HCV replicon luciferase reporter assay, genotype 1a; assay type: cell-based; conditions: Hepatitis C virus, Huh-7, 72 h, HCV genotype 1a replicon luciferase, 3 days incubation, class symbols, read-out: LE_1a (EC50, range)
Source text: (§1) An HCV replicon whole cell system was established as described by Lohmann V, Korner F, Koch J, Herian U, Theilmann L, Bartenschlager R., Science 285(5424):110-3 (1999) and modified to introduce a luciferase reporter, as first described by Krieger et al (Krieger N, Lohmann V, and Bartenschlager R, J. Virol. 75(10):4614-4624 (2001)). CDNA encoding a humanized form of the Renilla luciferase gene and a linker sequence fused directly to the 3′-end of the luciferase gene were introduced into the replicon construct using an Asc1 restriction site located in core, directly upstream of the neomycin marker gene. The adaptive mutation at position 1179 (serine to isoleucine) was also introduced (Blight K J, Kolykhalov, A A, Rice, C M, Science 290(5498):1972-1974). A stable cell line constitutively expressing this HCV replicon construct was generated by first linearizing plasmid DNAs with ScaI. RNA transcripts were synthesized in vitro using the T7 MegaScript transcription kit (Ambion, Austin, Tex.) according to manufacturer's directions. In vitro transcripts of the cDNA were transfected into the human hepatoma cell line, HUH-7. […] Resulting cell lines were characterized for positive and negative strand RNA production and protein production over time.
A stable HCV replicon luciferase reporter cell line representing the genotype 1a H77 strain (Yanagi M, Purcell R H, Emerson S U, et al. Transcripts from a single full-length cDNA clone of hepatitis C virus are infectious when directly transfected into the liver of a chimpanzee. Proc Natl Acad Sci USA 1997; 94(16):8738-8743) was generated as described previously for the genotype 1b (Con1) replicon luciferase cell line. The replicon construct was modified by introducing mutations were introduced into the genes encoding the NS3 helicase domain (proline replaced by leucine at position 1496) and NS5A (serine to isoleucine at position 2204) to improve replication in cell culture.
(§2) HCV replicon luciferase assays were developed to monitor the inhibitory effects of compounds described in the disclosure on HCV genotypes 1a and 1b viral replication. HUH-7 cells, constitutively expressing the HCV replicon, were grown in Dulbecco's Modified Eagle Media (DMEM) (Gibco-BRL) containing 10% Fetal calf serum (FCS) (Sigma) and 1 mg/mL G418 (Gibco-BRL). Compounds were serially diluted 3 folds in DMSO for a twenty-point titration and subsequently transferred to sterile 384-well tissue-culture treated plates (Corning cat #3571). The plates were then seeded with 50 μL of cells at a density of 3.0×10^3 cells/well in DMEM containing 4% FCS (final DMSO concentration at 0.5%). After 3 days incubation at 37° C., cells were analyzed for Renilla Luciferase activity using the EnduRen as substrate (Promega cat #E6485). The EnduRen substrate was diluted in DMEM and then added to the plates to a final concentration of 7.5 μM. The plates were incubated for 2 hrs at 37° C. and then read immediately for 30 seconds with Viewlux Imager (PerkinElmer) using a luminescence program. To assess cytotoxicity of compounds, CC50 values were generated by multiplexing the EnduRen-containing plates with Cell Titer-Blue (Promega, cat # G8082). Cell-Titer Blue (3 μL) was added to each well and incubated for 8 hrs at 37° C. The fluorescence signal from each well was read, with an excitation wavelength at 525/10 nm and an emission wavelength of 598/10 nm, using the Viewlux Imager.
(§3) The EC50 values for compounds were calculated by using a four-parameter logistic equation: y=A+((B−A)/(1+((C/x)^D))), where A and B denotes minimal and maximal % inhibition, respectively, C is the EC50, D is the hill slope and x represents compound concentration.

[2] = system: HCV genotype 1b (Con1) replicon in HUH-7 cells; test: HCV replicon luciferase reporter assay, genotype 1b; assay type: cell-based; conditions: Hepatitis C virus, 72 h, HCV genotype 1b replicon luciferase, 3 days incubation, class symbols, read-out: LE_1b (EC50, range)
Source text: as §1, with “time. […]” for “time.”
as §2, §3

SMILES	EC50 [1] [nM]	EC50 [2] [nM]
CC[C@@H]1C[C@H](C)CC/C=C\[C@@H]2C[C@@]2(C(=O)NS(=O)(=O)C2(C)CC2)NC(=O)[C@@H]2C[C@@H](Oc3nccc4cc(OC)c(F)cc34)CN2C(=O)[C@H]1NC(=O)OC(C)(C)C(F)(F)F [Compound 4176, 1,1,1-trifluoro-2-methylpropan-2-yl (2R,6S,7R,9R,13aS,14aR,16aS,Z)-7-ethyl-2-(7-fluoro-6-methoxyisoquinolin-1-yloxy)-9-methyl-14a-(1-methylcyclopropylsulfonylcarbamoyl)-5,16-dioxo-1,2,3,5,6,7,8,9,10,11,13a,14,14a,15,16,16a-hexadecahydrocyclopropa[e]pyrrolo[1,2-a][1,4]diazacyclopentadecin-6-ylcarbamate]	< 5.46	< 5.46
CC[C@@H]1C[C@H](C)CC/C=C\[C@@H]2C[C@@]2(C(=O)NS(=O)(=O)C2(C)CC2)NC(=O)[C@@H]2C[C@@H](Oc3ncc(OC)c4ccc(F)cc34)CN2C(=O)[C@H]1NC(=O)OC(C)(C)C(F)(F)F [Compound 4186, 1,1,1-trifluoro-2-methylpropan-2-yl (2R,6S,7R,9R,13aS,14aR,16aS,Z)-7-ethyl-2-(7-fluoro-4-methoxyisoquinolin-1-yloxy)-9-methyl-14a-(1-methylcyclopropylsulfonylcarbamoyl)-5,16-dioxo-1,2,3,5,6,7,8,9,10,11,13a,14,14a,15,16,16a-hexadecahydrocyclopropa[e]pyrrolo[1,2-a][1,4]diazacyclopentadecin-6-ylcarbamate]	< 5.46	< 5.46
CC[C@@H]1C[C@H](C)CC/C=C\[C@@H]2C[C@@]2(C(=O)NS(=O)(=O)C2CC2)NC(=O)[C@@H]2C[C@@H](Oc3cnc4ccc(OC)cc4n3)CN2C(=O)[C@H]1NC(=O)OC(C)(C)C(F)(F)F [Compound 4194, 1,1,1-trifluoro-2-methylpropan-2-yl (2R,6S,7R,9R,13aS,14aR,16aS,Z)-14a-(cyclopropylsulfonylcarbamoyl)-7-ethyl-2-(7-methoxyquinoxalin-2-yloxy)-9-methyl-5,16-dioxo-1,2,3,5,6,7,8,9,10,11,13a,14,14a,15,16,16a-hexadecahydrocyclopropa[e]pyrrolo[1,2-a][1,4]diazacyclopentadecin-6-ylcarbamate]	< 5.46	< 5.46
COc1ccc2c(O[C@@H]3C[C@H]4C(=O)N[C@]5(C(=O)NS(=O)(=O)C6(CF)CC6)C[C@H]5/C=C\CC[C@@H](C)C[C@@H](C)[C@H](NC(=O)OC(C)(C)C(F)(F)F)C(=O)N4C3)ccnc2c1 [Compound 4198, 1,1,1-trifluoro-2-methylpropan-2-yl (2R,6S,7R,9R,13aS,14aR,16aS,Z)-14a-(1-(fluoromethyl)cyclopropylsulfonylcarbamoyl)-2-(7-methoxyquinolin-4-yloxy)-7,9-dimethyl-5,16-dioxo-1,2,3,5,6,7,8,9,10,11,13a,14,14a,15,16,16a-hexadecahydrocyclopropa[e]pyrrolo[1,2-a][1,4]diazacyclopentadecin-6-ylcarbamate]	4.82 to 103	< 5.46
COc1ccc2c(O[C@@H]3C[C@H]4C(=O)N[C@]5(C(=O)NS(=O)(=O)C6(CF)CC6)C[C@H]5/C=C\CC[C@@H](C)C[C@@H](C)[C@H](NC(=O)OC(C)(C)C(F)(F)F)C(=O)N4C3)cc(Cl)nc2c1 [Compound 4199, 1,1,1-trifluoro-2-methylpropan-2-yl (2R,6S,7R,9R,13aS,14aR,16aS,Z)-2-(2-chloro-7-methoxyquinolin-4-yloxy)-14a-(1-(fluoromethyl)cyclopropylsulfonylcarbamoyl)-7,9-dimethyl-5,16-dioxo-1,2,3,5,6,7,8,9,10,11,13a,14,14a,15,16,16a-hexadecahydrocyclopropa[e]pyrrolo[1,2-a][1,4]diazacyclopentadecin-6-ylcarbamate]	< 5.46	< 5.46
CCOc1cnc(O[C@@H]2C[C@H]3C(=O)N[C@]4(C(=O)NS(=O)(=O)C5(C)CC5)C[C@H]4/C=C\CC[C@@H](C)C[C@@H](CC)[C@H](NC(=O)OC(C)(C)C(F)(F)F)C(=O)N3C2)c2ccccc12 [Compound 4202, 1,1,1-trifluoro-2-methylpropan-2-yl (2R,6S,7R,9R,13aS,14aR,16aS,Z)-2-(4-ethoxyisoquinolin-1-yloxy)-7-ethyl-9-methyl-14a-(1-methylcyclopropylsulfonylcarbamoyl)-5,16-dioxo-1,2,3,5,6,7,8,9,10,11,13a,14,14a,15,16,16a-hexadecahydrocyclopropa[e]pyrrolo[1,2-a][1,4]diazacyclopentadecin-6-ylcarbamate]	< 5.46	< 5.46
CC[C@@H]1C[C@H](C)CC/C=C\[C@@H]2C[C@@]2(C(=O)NS(=O)(=O)C2(C)CC2)NC(=O)[C@@H]2C[C@@H](Oc3nccc4cc(OC)ccc34)CN2C(=O)[C@H]1NC(=O)OC(C)(C)C [Compound 4203, tert-butyl (2R,6S,7R,9R,13aS,14aR,16aS,Z)-7-ethyl-2-(6-methoxyisoquinolin-1-yloxy)-9-methyl-14a-(1-methylcyclopropylsulfonylcarbamoyl)-5,16-dioxo-1,2,3,5,6,7,8,9,10,11,13a,14,14a,15,16,16a-hexadecahydrocyclopropa[e]pyrrolo[1,2-a][1,4]diazacyclopentadecin-6-ylcarbamate]	< 5.46	< 5.46
COc1ccc(-c2nc(O[C@@H]3C[C@H]4C(=O)N[C@]5(C(=O)NS(=O)(=O)C6CC6)C[C@@H]5/C=C\CC[C@@H](C)C[C@@H](C)[C@H](NC(=O)OC(C)(C)C)C(=O)N4C3)c3ccc(OC)cc3n2)cc1 [Compound 5002, tert-butyl ((2R,6S,7R,9R,13aR,14aR,16aS,Z)-14a-((cyclopropylsulfonyl)carbamoyl)-2-((7-methoxy-2-(4-methoxyphenyl)quinazolin-4-yl)oxy)-7,9-dimethyl-5,16-dioxo-1,2,3,5,6,7,8,9,10,11,13a,14,14a,15,16,16a-hexadecahydrocyclopropa[e]pyrrolo[1,2-a][1,4]diazacyclopentadecin-6-yl)carbamate]	< 5.46	< 5.46
[2H]C([2H])([2H])Oc1cnc(O[C@@H]2C[C@H]3C(=O)N[C@]4(C(=O)NS(=O)(=O)C5(C)CC5)C[C@H]4CCCC[C@H](C)C[C@@H](C)[C@H](NC(=O)OC(C)(C)C(F)(F)F)C(=O)N3C2)c2ccccc12 [Compound 5110, 1,1,1-trifluoro-2-methylpropan-2-yl ((2R,6S,7R,9S,13aR,14aR,16aS)-7,9-dimethyl-14a-(((1-methylcyclopropyl)sulfonyl)carbamoyl)-5,16-dioxo-2-((4-(trideuteromethoxy)isoquinolin-1-yl)oxy)octadecahydrocyclopropa[e]pyrrolo[1,2-a][1,4]diazacyclopentadecin-6-yl)carbamate]	4.82 to 103	< 5.46

— patent US9527885B2, “Hepatitis C virus inhibitors” (BRISTOL-MYERS SQUIBB COMPANY, priority 2011, dated 2016)
